How the values were obtained:
Type in all cases: biochemical
ROCK2 = ROCK2 (Homo sapiens, UniProt O75116); assay: In vitro inhibitory activity assay ROCK2 (ADP-Glo); settings: ATP 200 μM, Cheng-Prusoff; read-out: ROCK2 (Ki, range of activity)
Procedure: (§1) In Vitro Inhibitory Activity Assay Description ROCK1 and ROCK2
(§2) The effectiveness of compounds of the present invention to inhibit Rho kinase activity can be determined in a 10 μl assay containing 40 mM Tris pH7.5, 20 mM MgCl2 0.1 mg/mL BSA, 50 μM DTT and 2.5 μM peptide substrate (Myelin Basic Protein) using an ADP-Glo kit (Promega). Compounds were dissolved in DMSO such that the final concentration of DMSO was 1% in the assay. All reactions/incubations are performed at 25° C. Compound (2 ul) and either Rho kinase 1 or 2 (4 μl) were mixed and incubated for 30 mins. Reactions were initiated by addition of ATP (4 μl) such that the final concentration of ATP in the assay was 200 μM. After a 1 hour incubation 10 μl of ADP-Glo Reagent was added and after a further 1 hour incubation 20 ul of Kinase Detection Buffer was added and the mixture incubated for a further 45 minutes. The luminescent signal was measured on a luminometer. […] Compounds were tested in dose-response format and the inhibition of kinase activity was calculated at each concentration of compound. To determine the IC50 (concentration of compound required to inhibit 50% of the enzyme activity) data were fit to a plot of % inhibition vs Log 10 compound concentration using a sigmoidal fit with a variable slope and fixing the maximum to 100% and the minimum to 0%. To determine the Ki values the Cheng-Prusoff equation was utilized (Ki=IC50/(1+[S]/Km).

ROCK1 = ROCK1 (Homo sapiens, UniProt Q13464); assay: In vitro inhibitory activity assay ROCK1 (ADP-Glo); settings: ATP 200 μM, Cheng-Prusoff; read-out: ROCK 1 (Ki, range of activity)
Procedure: as §1, §2

PKA = PKA (Homo sapiens, UniProt P17612); assay: In vitro inhibitory activity assay for PKA (ADP-Glo), reported as selectivity ratio vs ROCK2; settings: Ki value for PKA divided by Ki value of ROCK2
Procedure: In Vitro Inhibitory Activity Assay Description for PKA
The effectiveness of compounds of the present invention to inhibit PKA activity can be determined in a 10 μl assay containing 40 mM Tris pH7.5, 20 mM MgCl2 0.1 mg/ml BSA, 50 μM DTT and 260 μM peptide substrate (kemptide) using an ADP-Glo kit (Promega). Compounds were dissolved in DMSO such that the final concentration of DMSO was 1% in the assay. All reactions/incubations are performed at 25° C. Compound and PKA enzyme (6 μl) were mixed and incubated for 30 mins. Reactions were initiated by addition of ATP (4 μl) such that the final concentration of ATP in the assay was 10 μM. After a 30 minute incubation 10p of ADP-Glo Reagent was added and after a further 1 hour incubation 20 μl of Kinase Detection Buffer was added and the mixture incubated for a further 45 minutes. The luminescent signal was measured on a luminometer. […] Compounds were tested in dose-response format and the inhibition of kinase activity was calculated at each concentration of compound. To determine the IC50 (concentration of compound required to inhibit 50% of the enzyme activity) data were fit to a plot of % inhibition vs Log10 compound concentration using a sigmoidal fit with a variable slope and fixing the maximum to 100% and the minimum to 0%. To determine the Ki values the Cheng-Prusoff equation was utilized (Ki=IC50/(1+[S]/Km).
In vitro inhibitory activities for PKA were reported as selectivity ratio vs. ROCK-2.

Chain of ROCK2 (O75116 whole entry): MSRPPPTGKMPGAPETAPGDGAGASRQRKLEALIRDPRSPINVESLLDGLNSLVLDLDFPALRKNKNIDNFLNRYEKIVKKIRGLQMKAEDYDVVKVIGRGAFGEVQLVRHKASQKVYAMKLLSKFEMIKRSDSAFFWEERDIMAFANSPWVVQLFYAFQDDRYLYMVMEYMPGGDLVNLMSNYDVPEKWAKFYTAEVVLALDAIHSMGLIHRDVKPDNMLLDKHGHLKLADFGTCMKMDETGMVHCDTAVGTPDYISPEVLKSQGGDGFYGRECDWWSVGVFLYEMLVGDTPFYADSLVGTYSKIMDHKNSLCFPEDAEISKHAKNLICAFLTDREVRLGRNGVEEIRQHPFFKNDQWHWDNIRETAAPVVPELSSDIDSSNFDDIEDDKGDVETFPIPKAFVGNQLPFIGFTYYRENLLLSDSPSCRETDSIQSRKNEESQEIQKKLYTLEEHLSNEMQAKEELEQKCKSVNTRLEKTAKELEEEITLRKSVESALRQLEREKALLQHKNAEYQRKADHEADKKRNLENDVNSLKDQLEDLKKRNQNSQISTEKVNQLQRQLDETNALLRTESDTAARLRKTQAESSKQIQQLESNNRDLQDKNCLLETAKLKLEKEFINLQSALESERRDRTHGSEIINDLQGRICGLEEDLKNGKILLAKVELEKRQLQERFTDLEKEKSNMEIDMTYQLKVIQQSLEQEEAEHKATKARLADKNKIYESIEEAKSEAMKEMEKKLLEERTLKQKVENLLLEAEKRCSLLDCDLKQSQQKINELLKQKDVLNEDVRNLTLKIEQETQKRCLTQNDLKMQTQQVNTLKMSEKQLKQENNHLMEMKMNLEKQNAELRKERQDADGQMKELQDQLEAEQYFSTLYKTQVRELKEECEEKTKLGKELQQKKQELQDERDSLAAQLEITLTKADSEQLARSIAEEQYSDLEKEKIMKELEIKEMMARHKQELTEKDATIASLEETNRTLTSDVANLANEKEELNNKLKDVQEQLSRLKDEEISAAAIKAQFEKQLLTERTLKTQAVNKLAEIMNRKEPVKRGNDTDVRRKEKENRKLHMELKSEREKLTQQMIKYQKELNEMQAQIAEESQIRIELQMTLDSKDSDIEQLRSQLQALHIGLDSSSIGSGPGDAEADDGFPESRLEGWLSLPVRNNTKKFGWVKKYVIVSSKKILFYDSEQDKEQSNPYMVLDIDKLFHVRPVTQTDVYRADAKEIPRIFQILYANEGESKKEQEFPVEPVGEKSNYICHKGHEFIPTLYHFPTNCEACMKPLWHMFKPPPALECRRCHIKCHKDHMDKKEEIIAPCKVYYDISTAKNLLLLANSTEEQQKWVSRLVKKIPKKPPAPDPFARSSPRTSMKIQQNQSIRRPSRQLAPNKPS
Chain of ROCK1 (Q13464 whole entry): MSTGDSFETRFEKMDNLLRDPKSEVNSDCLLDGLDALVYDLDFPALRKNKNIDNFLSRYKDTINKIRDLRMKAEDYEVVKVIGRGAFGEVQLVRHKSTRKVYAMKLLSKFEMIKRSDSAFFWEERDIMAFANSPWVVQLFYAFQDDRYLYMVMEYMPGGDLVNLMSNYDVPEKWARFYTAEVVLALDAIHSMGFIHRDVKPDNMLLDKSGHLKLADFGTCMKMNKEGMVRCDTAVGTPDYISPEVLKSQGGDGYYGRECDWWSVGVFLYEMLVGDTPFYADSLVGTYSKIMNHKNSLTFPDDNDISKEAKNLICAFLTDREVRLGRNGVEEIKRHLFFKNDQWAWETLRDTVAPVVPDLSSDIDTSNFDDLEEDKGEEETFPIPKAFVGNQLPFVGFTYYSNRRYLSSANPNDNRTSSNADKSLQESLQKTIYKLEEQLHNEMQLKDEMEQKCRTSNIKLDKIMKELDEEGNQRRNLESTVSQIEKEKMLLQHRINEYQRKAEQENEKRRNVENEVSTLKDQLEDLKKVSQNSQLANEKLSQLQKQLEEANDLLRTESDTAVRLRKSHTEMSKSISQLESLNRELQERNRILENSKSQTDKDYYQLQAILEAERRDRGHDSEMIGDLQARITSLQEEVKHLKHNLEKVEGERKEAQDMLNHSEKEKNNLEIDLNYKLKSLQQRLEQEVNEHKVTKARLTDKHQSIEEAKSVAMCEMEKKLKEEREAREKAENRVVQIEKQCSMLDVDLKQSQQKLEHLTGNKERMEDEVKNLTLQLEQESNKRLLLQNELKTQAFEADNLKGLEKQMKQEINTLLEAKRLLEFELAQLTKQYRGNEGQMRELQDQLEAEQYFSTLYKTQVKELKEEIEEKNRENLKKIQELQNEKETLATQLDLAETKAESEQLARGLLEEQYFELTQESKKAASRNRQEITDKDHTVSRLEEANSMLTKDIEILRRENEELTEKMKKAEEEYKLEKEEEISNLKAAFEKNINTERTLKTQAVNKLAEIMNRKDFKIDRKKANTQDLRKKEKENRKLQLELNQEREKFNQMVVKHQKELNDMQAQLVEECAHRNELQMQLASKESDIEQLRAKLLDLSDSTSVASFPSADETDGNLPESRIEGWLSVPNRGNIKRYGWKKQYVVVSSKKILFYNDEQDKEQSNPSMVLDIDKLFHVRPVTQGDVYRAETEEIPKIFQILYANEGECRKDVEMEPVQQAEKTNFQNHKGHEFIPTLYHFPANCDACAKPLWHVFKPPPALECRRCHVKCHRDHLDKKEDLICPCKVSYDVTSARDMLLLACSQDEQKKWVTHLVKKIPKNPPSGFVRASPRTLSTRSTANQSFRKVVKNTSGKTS

Row | SMILES | Ki (ROCK2) | Ki (ROCK1) | Ratio (PKA/ROCK2) (PKA)
1 | CNC(=O)c1cc(F)cc(CNc2ncc(-c3ccnc(N)n3)c3c2CCO3)c1 [Example 59, 3-(((7-(2-Aminopyrimidin-4-yl)-2,3-dihydrofuro[3,2-c]pyridin-4-yl)amino)methyl)-5-fluoro-N-methylbenzamide] | ≤ 3 nM | ≤ 3 nM | *** (ratio≥10)
2 | CC1(C)CC(NC(=O)c2cccc(CNc3ncc(-c4ccnc(N)n4)c4c3CCO4)c2)CO1 (stereo not drawn) [Example 3, 3-(((7-(2-Aminopyrimidin-4-yl)-2,3-dihydrofuro[3,2-c]pyridin-4-yl)amino)methyl)-N-(5,5-dimethyltetrahydrofuran-3-yl)benzamide] | ≤ 3 nM | ≤ 3 nM | *** (ratio≥10)
3 | Nc1nccc(-c2cnc(NCc3cccc(C(=O)NC4CCC4)c3)c3c2OCC3)n1 [Example 1, 3-(((7-(2-Aminopyrimidin-4-yl)-2,3-dihydrofuro[3,2-c]pyridin-4-yl)amino)methyl)-N-cyclobutylbenzamide] | ≤ 3 nM | ≤ 3 nM | ** (5≤ratio<10)
4 | COCCNC(=O)c1cccc(CNc2ncc(-c3ccnc(N)n3)c3c2CCO3)c1 [Example 9, 3-(((7-(2-Aminopyrimidin-4-yl)-2,3-dihydrofuro[3,2-c]pyridin-4-yl)amino)methyl)-N-(2-methoxyethyl)benzamide] | ≤ 3 nM | ≤ 3 nM | *** (ratio≥10)
5 | CC(C)(C)N1CC(CNC(=O)c2cccc(CNc3ncc(-c4ccnc(N)n4)c4c3CCO4)c2)CC1=O (single isomer, unassigned) [Example 33, 3-(((7-(2-Aminopyrimidin-4-yl)-2,3-dihydrofuro[3,2-c]pyridin-4-yl)amino)methyl)-N-((1-(tert-butyl)-5-oxopyrrolidin-3-yl)methyl)benzamide] | ≤ 3 nM | ≤ 3 nM | *** (ratio≥10)
6 | Nc1nccc(-c2cnc(NCc3cccc(C(=O)N[C@H]4C[C@@H](OC(F)F)C4)c3)c3c2OCC3)n1 [Example 26, 3-(((7-(2-aminopyrimidin-4-yl)-2,3-dihydrofuro[3,2-c]pyridin-4-yl)amino)methyl)-N-((1s,3s)-3-(difluoromethoxy)cyclobutyl)benzamide] | ≤ 3 nM | ≤ 3 nM | *** (ratio≥10)
7 | Nc1nccc(-c2cnc(NCc3cccc(C(=O)NCCC(F)F)c3)c3c2OCC3)n1 [Example 50, 3-(((7-(2-Aminopyrimidin-4-yl)-2,3-dihydrofuro[3,2-c]pyridin-4-yl)amino)methyl)-N-(3,3-difluoropropyl)benzamide] | ≤ 3 nM | ≤ 3 nM | *** (ratio≥10)
8 | CC(C)NC(=O)c1cccc(CNc2ncc(-c3ccnc(N)n3)c3c2CCO3)c1 [Example 11, 3-(((7-(2-Aminopyrimidin-4-yl)-2,3-dihydrofuro[3,2-c]pyridin-4-yl)amino)methyl)-N-isopropylbenzamide] | 3 to 30 nM | 3 to 30 nM | *** (ratio≥10)
9 | Nc1nccc(-c2cnc(NCc3cccc(C(=O)N[C@@H]4C[C@@H]4F)c3)c3c2OCC3)n1 [Example 37, 3-(((7-(2-Aminopyrimidin-4-yl)-2,3-dihydrofuro[3,2-c]pyridin-4-yl)amino)methyl)-N-((1R,2S)-2-fluorocyclopropyl)benzamide] | ≤ 3 nM | ≤ 3 nM | *** (ratio≥10)
10 | Nc1nccc(-c2cnc(NCc3cccc(C(=O)NC4CC(F)(F)C4)c3)c3c2OCC3)n1 [Example 10, 3-(((7-(2-Aminopyrimidin-4-yl)-2,3-dihydrofuro[3,2-c]pyridin-4-yl)amino)methyl)-N-(3,3-difluorocyclobutyl)benzamide] | ≤ 3 nM | ≤ 3 nM | ** (5≤ratio<10)
11 | CC1(NC(=O)c2cccc(CNc3ncc(-c4ccnc(N)n4)c4c3CCO4)c2)CC1 [Example 22, 3-(((7-(2-Aminopyrimidin-4-yl)-2,3-dihydrofuro[3,2-c]pyridin-4-yl)amino)methyl)-N-(1-methylcyclopropyl)benzamide] | 3 to 30 nM | 3 to 30 nM | ** (5≤ratio<10)
12 | Nc1nccc(-c2cnc(NCc3cccc(C(=O)NCCCF)c3)c3c2OCC3)n1 [Example 29, 3-(((7-(2-Aminopyrimidin-4-yl)-2,3-dihydrofuro[3,2-c]pyridin-4-yl)amino)methyl)-N-(3-fluoropropyl)benzamide] | ≤ 3 nM | ≤ 3 nM | *** (ratio≥10)
13 | Nc1nccc(-c2cnc(NCc3ccc(F)c(C(=O)NC4CCOCC4)c3)c3c2OCC3)n1 [Example 58, 5-(((7-(2-Aminopyrimidin-4-yl)-2,3-dihydrofuro[3,2-c]pyridin-4-yl)amino)methyl)-2-fluoro-N-(tetrahydro-2H-pyran-4-yl)benzamide] | ≤ 3 nM | 3 to 30 nM | *** (ratio≥10)
14 | Nc1nccc(-c2cnc(NCc3cccc(C(=O)N[C@H]4[C@@H]5COC[C@@H]54)c3)c3c2OCC3)n1 [Example 23, 3-(((7-(2-Aminopyrimidin-4-yl)-2,3-dihydrofuro[3,2-c]pyridin-4-yl)amino)methyl)-N-((1R,5S,6r)-3-oxabicyclo[3.1.0]hexan-6-yl)benzamide] | ≤ 3 nM | ≤ 3 nM | *** (ratio≥10)
15 | COC(C)(C)CCNC(=O)c1cccc(CNc2ncc(-c3ccnc(N)n3)c3c2CCO3)c1 [Example 36, 3-(((7-(2-Aminopyrimidin-4-yl)-2,3-dihydrofuro[3,2-c]pyridin-4-yl)amino)methyl)-N-(3-methoxy-3-methylbutyl)benzamide] | ≤ 3 nM | ≤ 3 nM | *** (ratio≥10)
16 | COCCCNC(=O)c1cccc(CNc2ncc(-c3ccnc(N)n3)c3c2CCO3)c1 [Example 8, 3-(((7-(2-Aminopyrimidin-4-yl)-2,3-dihydrofuro[3,2-c]pyridin-4-yl)amino)methyl)-N-(3-methoxypropyl)benzamide] | ≤ 3 nM | ≤ 3 nM | *** (ratio≥10)
17 | Nc1nccc(-c2cnc(NCc3cccc(C(=O)NCC4CCO4)c3)c3c2OCC3)n1 (stereo not drawn) [Example 38, 3-(((7-(2-Aminopyrimidin-4-yl)-2,3-dihydrofuro[3,2-c]pyridin-4-yl)amino)methyl)-N-(oxetan-2-ylmethyl)benzamide] | ≤ 3 nM | ≤ 3 nM | *** (ratio≥10)
18 | CO[C@H]1C[C@@H](NC(=O)c2cccc(CNc3ncc(-c4ccnc(N)n4)c4c3CCO4)c2)C1 [Example 18, 3-(((7-(2-aminopyrimidin-4-yl)-2,3-dihydrofuro[3,2-c]pyridin-4-yl)amino)methyl)-N-((1s,3s)-3-methoxycyclobutyl)benzamide] | ≤ 3 nM | ≤ 3 nM | *** (ratio≥10)
19 | CO[C@H]1C[C@H](NC(=O)c2cccc(CNc3ncc(-c4ccnc(N)n4)c4c3CCO4)c2)C1 [Example 41, 3-(((7-(2-Aminopyrimidin-4-yl)-2,3-dihydrofuro[3,2-c]pyridin-4-yl)amino)methyl)-N-((1R,3R)-3-methoxycyclobutyl)benzamide] | ≤ 3 nM | ≤ 3 nM | *** (ratio≥10)
